Patent publication US8614206B2 (Genentech, Inc., priority 2011, dated 2013)
Like-named read-outs stand apart in the source and are kept apart here.

Columns and labels:
[1] = tested on: MM1.S (multiple myeloma) cells; experiment: In vitro cell proliferation, MM1.S multiple myeloma cells (CellTiter-Glo, ATP); assay type: cell-based; details: Homo sapiens, MM1.S, 72 h, read-out: Prolif MM1S ATP (EC50)
Procedure, shortened: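 BaF3 parental cells (medium with 2 ng/mL mIL-3) seeded at 2 k/well and MM1.S at 10 k/well, then exposed to test compound at 37° C, 5% CO2: BaF3 overnight, MM1.S for 72 hours. Viability read by CellTiter-Glo; IC50/EC50 values calculated.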

BaF3 PIM1 cells = experiment: cells; details: Mus musculus
PIM1 = PIM1 (Homo sapiens (Human), UniProt P11309); experiment: Pim kinase inhibition, PIM1 LC3K (Example 901); assay type: biochemical
Chain of PIM1 (P11309 whole entry): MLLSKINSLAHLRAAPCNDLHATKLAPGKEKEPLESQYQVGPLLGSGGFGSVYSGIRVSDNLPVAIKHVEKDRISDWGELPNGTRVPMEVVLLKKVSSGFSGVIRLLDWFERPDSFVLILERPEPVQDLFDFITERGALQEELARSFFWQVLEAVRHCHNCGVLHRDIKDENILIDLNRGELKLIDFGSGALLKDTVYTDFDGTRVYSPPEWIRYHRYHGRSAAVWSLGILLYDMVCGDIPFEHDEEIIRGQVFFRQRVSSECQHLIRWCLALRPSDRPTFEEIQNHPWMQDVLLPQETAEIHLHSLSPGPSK
From the text: Determination of the Pim kinase activity of a Formula I compound is possible by a number of direct and indirect detection methods.

BaF3 parental cells = experiment: In vitro cell proliferation, BaF3 parental line + IL3 (CellTiter-Glo); assay type: cell-based, murine; details: Mus musculus, BaF3, BaF3 parental cells with IL-3, incubated overnight
[2] = BaF3, read-out: Prolif BaF3_PIM1 (IC50), BaF3 PIM1 cells, incubated overnight
[3] = read-out: Prolif BaF3 + IL3 (IC50)
[4] = BaF3, read-out: Prolif BaF3 PIM1 (IC50), BaF3 PIM1 cells, incubated overnight
[5] = read-out: Prolif BaF3 IL3 (IC50)

| EC50 [1] [nM] | IC50 (BaF3 PIM1 cells; [2]) [nM] | Ki (PIM1) [nM] | IC50 (BaF3 PIM1 cells; [4]) [nM] | SMILES | IC50 (BaF3 parental cells; [3]) [nM] | IC50 (BaF3 parental cells; [5]) [nM] |
| --- | --- | --- | --- | --- | --- | --- |
| 123 | 1400 | 0.833 | – | COC1CCN(c2c(NC(=O)c3nc(-c4ccccn4)sc3N)cnn2C)CCC1N (racemic) [Example 322, 5-amino-N-[5-(4-amino-5-methoxy-azepan-1-yl)-1-methyl-pyrazol-4-yl]-2-(2-pyridyl)thiazole-4-carboxamide] | > 25000 | – |
| 1100 | 1500 | 0.057 | – | Cn1ncc(NC(=O)c2nc(-c3ccccc3F)sc2N)c1N1CCCC(C)(N)CC1 (racemic) [Example 412, 5-amino-N-[5-(4-amino-4-methyl-azepan-1-yl)-1-methyl-pyrazol-4-yl]-2-(2-fluorophenyl)thiazole-4-carboxamide] | 7100 | – |
| 80.6 | 3.03 | 0.008 | – | Cn1ncc(NC(=O)c2nc(-c3c(F)cncc3F)sc2N)c1N1CCC(N)CC(F)(F)C1 (racemic) [Example 438, 5-amino-N-[5-(5-amino-3,3-difluoro-azepan-1-yl)-1-methyl-pyrazol-4-yl]-2-(3,5-difluoro-4-pyridyl)thiazole-4-carboxamide] | 20300 | – |
| 3900 | 38.8 | 0.121 | – | Cn1ncc(NC(=O)c2nc(-c3c(F)cncc3F)sc2N)c1N1CC[C@H](N)[C@@H](F)CC1 (racemic) [Example 439, 5-amino-N-(5-((4S,5S)-4-amino-5-fluoroazepan-1-yl)-1-methyl-1H-pyrazol-4-yl)-2-(3,5-difluoropyridin-4-yl)thiazole-4-carboxamide] | 16200 | – |
| 77.4 | 15.2 | 0.024 | – | COC1(C)CC(N)CCN(c2c(NC(=O)c3nc(-c4c(F)cncc4F)sc3N)cnn2C)C1 (racemic) [Example 440, 5-amino-N-[5-(5-amino-3-methoxy-3-methyl-azepan-1-yl)-1-methyl-pyrazol-4-yl]-2-(3,5-difluoro-4-pyridyl)thiazole-4-carboxamide] | > 25000 | – |
| 39.3 | 13.1 | 0.027 | – | COC1(C)CC(N)CCN(c2c(NC(=O)c3nc(-c4ccncc4F)sc3N)cnn2C)C1 (racemic) [Example 441, 5-amino-N-[5-(5-amino-3-methoxy-3-methyl-azepan-1-yl)-1-methyl-pyrazol-4-yl]-2-(3-fluoro-4-pyridyl)thiazole-4-carboxamide] | > 25000 | – |
| 167 | 152 | 0.0647 | – | Nc1sc(-c2c(F)cccc2F)nc1C(=O)Nc1cnn(C2CC2)c1N1CCC(N)C(F)CC1 (single isomer, unassigned) [Example 331, 5-amino-N-[5-(4-amino-5-fluoro-azepan-1-yl)-1-cyclopropyl-pyrazol-4-yl]-2-(2,6-difluorophenyl)thiazole-4-carboxamide] | 13400 | – |
| 9200 | 4.51 | 0.01 | – | Cn1ncc(NC(=O)c2nc(-c3ccncc3F)sc2N)c1N1CC[C@H](N)CC(F)(F)C1 (single isomer, unassigned) [Example 446] | 23500 | – |
| 3700 | 2.17 | 0.023 | – | Cn1ncc(NC(=O)c2nc(-c3c(F)cncc3F)sc2N)c1N1CC[C@H](N)CC(F)(F)C1 (single isomer, unassigned) [Example 454] | 17900 | – |
| 6200 | 737 | 0.045 | – | Cn1ncc(NC(=O)c2nc(-c3ccccc3F)sc2N)c1N1CCNC[C@]2(CCO2)C1 (single isomer, unassigned) [Example 480] | 7100 | – |
| 50.2 | – | – | 21 | Cn1ncc(NC(=O)c2nc(-c3c(F)cccc3F)sc2N)c1N1CCC(N)CC(F)(F)C1 (stereo not shown) [Example 121, 5-Amino-N-(5-(5-amino-3,3-difluoroazepan-1-yl)-1-methyl-1H-pyrazol-4-yl)-2-(2,6-difluorophenyl)thiazole-4-carboxamide] | – | 4800 |
| 22.9 | – | – | 16.5 | Cn1ncc(NC(=O)c2nc(-c3c(F)cccc3F)sc2N)c1N1CC[C@H](N)CC(F)(F)C1 [Example 166, (S)-5-amino-N-(5-(5-amino-3,3-difluoroazepan-1-yl)-1-methyl-1H-pyrazol-4-yl)-2-(2,6-difluorophenyl)thiazole-4-carboxamide] | – | 13400 |
| 1400 | – | – | 48.4 | Cn1ncc(NC(=O)c2nc(-c3c(F)cccc3F)sc2N)c1N1CC[C@@H](N)CC(F)(F)C1 [Example 167, (R)-5-amino-N-(5-(5-amino-3,3-difluoroazepan-1-yl)-1-methyl-1H-pyrazol-4-yl)-2-(2,6-difluorophenyl)thiazole-4-carboxamide] | – | > 25000 |
| – | 1500 | 0.002 | – | Cn1ncc(NC(=O)c2nc(-c3c(F)ccc(I)c3F)sc2N)c1N1CC[C@@H](N)CC(F)(F)C1 [Example 346, 5-amino-N-[5-[(5R)-5-amino-3,3-difluoro-azepan-1-yl]-1-methyl-pyrazol-4-yl]-2-(2,6-difluoro-3-iodo-phenyl)thiazole-4-carboxamide] | 1200 | – |
| – | 69.2 | 0.002 | – | Cn1ncc(NC(=O)c2nc(-c3c(F)ccc(I)c3F)sc2N)c1N1CC[C@H](N)CC(F)(F)C1 [Example 347, 5-amino-N-[5-[(5S)-5-amino-3,3-difluoro-azepan-1-yl]-1-methyl-pyrazol-4-yl]-2-(2,6-difluoro-3-iodo-phenyl)thiazole-4-carboxamide] | 2400 | – |
| – | 825 | 0.109 | – | CCn1ncc(NC(=O)c2nc(-c3c(F)cccc3F)sc2N)c1N1CC[C@H](N)[C@@H](F)CC1 [Example 348, 5-amino-N-(5-((4S,5S)-4-amino-5-fluoroazepan-1-yl)-1-ethyl-1H-pyrazol-4-yl)-2-(2,6-difluorophenyl)thiazole-4-carboxamide] | 11200 | – |
| – | 2500 | 0.144 | – | Cc1cnc(F)c(-c2nc(C(=O)Nc3cnn(C)c3N3CCC[C@H](N)CC3)c(N)s2)c1 [Example 425, 5-amino-N-[5-[(4S)-4-aminoazepan-1-yl]-1-methyl-pyrazol-4-yl]-2-(2-fluoro-5-methyl-3-pyridyl)thiazole-4-carboxamide] | > 25000 | – |
| – | 6600 | 0.884 | – | Cc1ccncc1-c1nc(C(=O)Nc2cnn(C)c2N2CC[C@@H](N)[C@H](F)CC2)c(N)s1 [Example 428, 5-amino-N-[5-[(4R,5R)-4-amino-5-fluoro-azepan-1-yl]-1-methyl-pyrazol-4-yl]-2-(4-methyl-3-pyridyl)thiazole-4-carboxamide] | > 25000 | – |
| – | 5300 | 0.315 | – | Cc1c(-c2nc(C(=O)Nc3cnn(C)c3N3CC[C@@H](N)[C@H](F)CC3)c(N)s2)cnn1C [Example 429, 5-amino-N-[5-[(4R,5R)-4-amino-5-fluoro-azepan-1-yl]-1-methyl-pyrazol-4-yl]-2-(1,5-dimethylpyrazol-4-yl)thiazole-4-carboxamide] | > 25000 | – |
| – | 5800 | 1.44 | – | Cn1ncc(NC(=O)c2nc(-c3cccc(C#N)n3)sc2N)c1N1CC[C@@H](N)[C@H](F)CC1 [Example 432, 5-amino-N-[5-[(4R,5R)-4-amino-5-fluoro-azepan-1-yl]-1-methyl-pyrazol-4-yl]-2-(6-cyano-2-pyridyl)thiazole-4-carboxamide] | 6300 | – |
| – | 1300 | 0.024 | – | Cn1ncc(NC(=O)c2nc(-c3ccccc3F)sc2N)c1N1CCCC(C)(N)CC1 (stereo not shown) [Example 433, 5-amino-N-[5-(4-amino-4-methyl-azepan-1-yl)-1-methyl-pyrazol-4-yl]-2-(2-fluorophenyl)thiazole-4-carboxamide] | 11100 | – |
| – | 2300 | 0.058 | – | Cn1ncc(NC(=O)c2nc(-c3c(F)cccc3F)sc2N)c1N1CC[C@@H]2OC(=O)N[C@@H]2CC1 [Example 486, N-[5-[(3aR,8aS)-2-oxo-3a,4,5,7,8,8a-hexahydro-3H-oxazolo[4,5-d]azepin-6-yl]-1-methyl-pyrazol-4-yl]-5-amino-2-(2,6-difluorophenyl)thiazole-4-carboxamide] | 11200 | – |
| – | 2000 | 0.353 | – | Cn1ncc(NC(=O)c2nc(-c3c(F)cccc3F)sc2N)c1N1CC[C@@H]2NC(=O)O[C@@H]2CC1 [Example 488, N-[5-[(3aS,8aR)-2-oxo-3a,4,5,7,8,8a-hexahydro-3H-oxazolo[4,5-d]azepin-6-yl]-1-methyl-pyrazol-4-yl]-5-amino-2-(2,6-difluorophenyl)thiazole-4-carboxamide] | 5400 | – |
| 3000 | 17.7 | – | – | [2H]C([2H])([2H])n1ncc(NC(=O)c2nc(-c3c(F)cccc3F)sc2N)c1N1CC[C@H](N)CC(F)(F)C1 [Example 493, 5-amino-N-[5-[(5S)-5-amino-3,3-difluoro-azepan-1-yl]-1-(trideuteriomethyl)pyrazol-4-yl]-2-(2,6-difluorophenyl)thiazole-4-carboxamide] | 7800 | – |
| 54.6 | 13.4 | – | – | [2H]C([2H])([2H])n1ncc(NC(=O)c2nc(-c3c(F)cccc3F)sc2N)c1N1CC[C@@H](N)CC(F)(F)C1 [Example 494, 5-amino-N-[5-[(5R)-5-amino-3,3-difluoro-azepan-1-yl]-1-(trideuteriomethyl)pyrazol-4-yl]-2-(2,6-difluorophenyl)thiazole-4-carboxamide] | 8900 | – |
